The experiment deals with T1, Tyrosine-protein phosphatase non-receptor type 1 (Homo sapiens, UniProt P18031).
T1 sequence (P18031 whole entry): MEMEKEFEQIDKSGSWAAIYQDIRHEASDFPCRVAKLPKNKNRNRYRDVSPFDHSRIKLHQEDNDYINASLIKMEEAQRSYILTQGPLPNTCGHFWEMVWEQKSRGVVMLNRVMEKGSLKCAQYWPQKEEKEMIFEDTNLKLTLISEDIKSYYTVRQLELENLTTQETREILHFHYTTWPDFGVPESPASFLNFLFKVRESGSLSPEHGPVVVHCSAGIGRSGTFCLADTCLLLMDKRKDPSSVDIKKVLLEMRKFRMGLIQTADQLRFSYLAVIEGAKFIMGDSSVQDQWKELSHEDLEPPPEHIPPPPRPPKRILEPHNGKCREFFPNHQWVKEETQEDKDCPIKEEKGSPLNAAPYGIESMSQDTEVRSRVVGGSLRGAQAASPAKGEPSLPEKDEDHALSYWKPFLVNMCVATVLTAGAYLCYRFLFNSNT
Kind of experiment: Inhibitory activity against protein tyrosine phosphatase 1B using O-methyl fluorescein monophosphate.
Compound `CS(=O)(=O)Nc1ccc(CN(Cc2ccc(C(F)(F)P(=O)(O)O)cc2)S(=O)(=O)c2ccc(OCC(=O)O)cc2)cc1` returned a half-maximal inhibitory concentration (IC50) of 180 nM.

Regarding `Cc1cc(S(=O)(=O)N(Cc2ccccc2)Cc2ccc(C(F)(F)P(=O)(O)O)cc2)ccc1OCC(=O)O`, the 50% inhibitory concentration (IC50) was found to be 4000 nM.

In turn, `O=C(O)COc1c(F)ccc(S(=O)(=O)N(Cc2ccccc2)Cc2ccc(C(F)(F)P(=O)(O)O)cc2)c1F` yielded a half-inhibitory concentration (IC50) of 1600 nM.

Turning to `CC(=O)NCCN(Cc1ccc(C(F)(F)P(=O)(O)O)cc1)S(=O)(=O)c1ccc(OCC(=O)O)cc1`, the IC50 is 9000 nM.

On to `O=C(O)COc1ccc(S(=O)(=O)N(Cc2ccc(C(F)(F)P(=O)(O)O)cc2)c2ccc(-c3csnn3)cc2)cc1`, for which 220 nM corresponded to half-maximal inhibition (IC50).

Consider `CN(C)S(=O)(=O)c1ccc(CN(Cc2ccc(C(F)(F)P(=O)(O)O)cc2)S(=O)(=O)c2ccc(OCC(=O)O)cc2)cc1`, for which half-maximal inhibition (IC50) required 1100 nM.

`O=C(O)COc1ccc(C(=O)N(Cc2ccc(-c3csnn3)cc2)Cc2ccc(C(F)(F)P(=O)(O)O)cc2)cc1` registered a 50% inhibitory concentration (IC50) of 2300 nM.

Consider `O=C(O)COc1ccc(S(=O)(=O)N(Cc2ccccc2)Cc2ccc(C(F)(F)P(=O)(O)O)cc2)cc1Br`, for which the half-inhibitory concentration (IC50) turned out to be 4000 nM.

Compound `O=C(O)COc1ccc(S(=O)(=O)N(Cc2ccccc2)Cc2ccc(C(F)(F)P(=O)(O)O)cc2)cc1OC(F)(F)F` yielded a 50% inhibitory concentration (IC50) of 5000 nM.

For `O=C(O)COc1ccc(S(=O)(=O)N(Cc2ccc(C(F)(F)P(=O)(O)O)cc2)Cc2cccs2)cc1`, it took 1000 nM to reach half-maximal inhibition (IC50).

Consider `CC(=O)c1cccc(CN(Cc2ccc(C(F)(F)P(=O)(O)O)cc2)S(=O)(=O)c2ccc(OCC(=O)O)cc2)c1`, for which the midpoint of inhibition, the IC50, lay at 770 nM.

`CN(Cc1ccccc1)C(=O)CN(Cc1ccc(C(F)(F)P(=O)(O)O)cc1)S(=O)(=O)c1ccc(OCC(=O)O)cc1` had an IC50 of 600 nM and a Ki of 590 nM.

As for `O=C(O)COc1ccc(S(=O)(=O)N(Cc2ccc(NC(=O)c3ccccc3)cc2)Cc2ccc(C(F)(F)P(=O)(O)O)cc2)cc1`, the IC50 came out at 630 nM.

As to `O=C(O)COc1c(F)cc(S(=O)(=O)N(Cc2ccccc2)Cc2ccc(C(F)(F)P(=O)(O)O)cc2)cc1F`, the IC50 was found to be 1000 nM.

Turning to `O=C(O)COc1ccc(S(=O)(=O)N(Cc2ccc(-c3csnn3)cc2)Cc2ccc(C(F)(F)P(=O)(O)O)cc2)cc1`, inhibition was half-maximal at 74 nM (IC50) and the Ki was found to be 56 nM.

The compound `COc1cc(CN(Cc2ccc(-c3csnn3)cc2)S(=O)(=O)c2ccc(OCC(=O)O)cc2)ccc1C(F)(F)P(=O)(O)O` displayed an IC50 of 60 nM.

Compound `CN(C)S(=O)(=O)c1ccc(CN(Cc2ccc(C(F)(F)P(=O)(O)O)c(Br)c2)S(=O)(=O)c2ccc(OCC(=O)O)cc2)cc1` had a 50% inhibitory concentration (IC50) of 28 nM and a Ki of 13 nM.

Compound `O=C(O)c1cc(S(=O)(=O)N(Cc2ccccc2)Cc2ccc(C(F)(F)P(=O)(O)O)cc2)ccc1O` returned an IC50 of 2900 nM.

As to `O=[N+]([O-])c1ccccc1S(=O)(=O)N(Cc1ccccc1)Cc1ccc(C(F)(F)P(=O)(O)O)cc1`, inhibition was half-maximal at 7000 nM (IC50).

In turn, `CN(Cc1ccccc1)C(=O)CN(Cc1ccc(OCC(=O)O)cc1)Cc1ccc(C(F)(F)P(=O)(O)O)cc1` showed an IC50 of 67500 nM.

`O=C(c1ccc(CN(Cc2ccccc2)S(=O)(=O)c2ccccc2[N+](=O)[O-])cc1)C(F)(F)P(=O)(O)O` yielded an IC50 of 12000 nM.

Regarding `O=P(O)(O)C(F)(F)c1ccc(CN(Cc2ccccc2)S(=O)(=O)c2ccccc2)cc1`, the IC50 came to 4200 nM.

`O=C(O)COc1ccc(S(=O)(=O)N(Cc2ccccc2)Cc2ccc(C(F)(F)P(=O)(O)O)cc2)cc1F` registered an IC50 of 3000 nM.

With `O=P(O)(O)C(F)(F)c1ccc(CN(Cc2ccc(-c3csnn3)cc2)S(=O)(=O)c2ccccc2)cc1`, the half-maximal inhibitory concentration (IC50) was 210 nM and the Ki was 98 nM.

On to `Cc1cc(S(=O)(=O)N(Cc2ccccc2)Cc2ccc(C(F)(F)P(=O)(O)O)cc2)cc(C)c1OCC(=O)O`, for which half-maximal inhibition (IC50) was put at 1900 nM.

For `O=C(O)COc1ccc(S(=O)(=O)N(Cc2ccccc2)Cc2ccc(C(F)(F)P(=O)(O)O)cc2)cc1Cl`, inhibition was half-maximal at 3000 nM (IC50).

`O=P(O)(O)C(F)(F)c1ccc(CNCc2ccc(-c3csnn3)cc2)cc1` had an IC50 of 13700 nM.

Compound `O=C(O)COc1ccc(S(=O)(=O)N(CC(=O)N2CCCCC2)Cc2ccc(C(F)(F)P(=O)(O)O)cc2)cc1` yielded an IC50 of 6800 nM.

`O=C(O)COc1ccc(S(=O)(=O)N(Cc2ccc(-c3csnn3)cc2)Cc2ccc(C(F)(F)P(=O)(O)O)c(Br)c2)cc1` showed an IC50 of 35 nM and a Ki of 53 nM.

As to `CN(Cc1ccccc1)C(=O)CN(Cc1ccc(C(F)(F)P(=O)(O)O)c(Br)c1)S(=O)(=O)c1ccc(OCC(=O)O)cc1`, the IC50 worked out at 31 nM and the Ki amounted to 14 nM.

For `O=C(O)COc1ccc(S(=O)(=O)N(Cc2ccccc2)Cc2ccc(C(F)(F)P(=O)(O)O)cc2)cc1`, 600 nM corresponded to half-maximal inhibition (IC50).

`COc1cc(CN(Cc2ccc(S(=O)(=O)N(C)C)cc2)S(=O)(=O)c2ccc(OCC(=O)O)cc2)ccc1C(F)(F)P(=O)(O)O` yielded an IC50 of 1100 nM.

Consider `O=C(O)COc1ccc(S(=O)(=O)N(Cc2ccccc2)Cc2ccc(C(F)(F)P(=O)(O)O)cc2)cc1C(F)(F)F`, for which half-maximal inhibition (IC50) was put at 4000 nM.

In turn, `O=C(c1ccc(O)cc1)N(Cc1ccc(-c2csnn2)cc1)Cc1ccc(C(F)(F)P(=O)(O)O)cc1` came in with an IC50 of 6900 nM.

For the origin of these results see ChEMBL document CHEMBL1141064, “Discovery and structure-activity relationships of novel sulfonamides as potent PTP1B inhibitors” (Bioorg Med Chem Lett, 2005).
